Source: ChEMBL document CHEMBL1128128, “Relationship between structure and bioavailability in a series of hydroxamate based metalloprotease inhibitors” (Bioorg Med Chem Lett, 1995)

Key:
[1] = Plasma half-life in rats; type: ADME, organism-based; settings: rat
[2] = Biliary excretion when administered intravenously at a dose of 5 mg/kg in rats; type: ADME, organism-based; set-up: dose 5 mg/kg, route intravenous; settings: rat, bile, iv, read-out: Biliary excretion
[3] = target: T1, Interstitial collagenase (Homo sapiens, UniProt P03956); experiment: Evaluated for inhibitory activity against Human fibroblast collagenase (HFC)
T1 sequence (P03956 whole entry): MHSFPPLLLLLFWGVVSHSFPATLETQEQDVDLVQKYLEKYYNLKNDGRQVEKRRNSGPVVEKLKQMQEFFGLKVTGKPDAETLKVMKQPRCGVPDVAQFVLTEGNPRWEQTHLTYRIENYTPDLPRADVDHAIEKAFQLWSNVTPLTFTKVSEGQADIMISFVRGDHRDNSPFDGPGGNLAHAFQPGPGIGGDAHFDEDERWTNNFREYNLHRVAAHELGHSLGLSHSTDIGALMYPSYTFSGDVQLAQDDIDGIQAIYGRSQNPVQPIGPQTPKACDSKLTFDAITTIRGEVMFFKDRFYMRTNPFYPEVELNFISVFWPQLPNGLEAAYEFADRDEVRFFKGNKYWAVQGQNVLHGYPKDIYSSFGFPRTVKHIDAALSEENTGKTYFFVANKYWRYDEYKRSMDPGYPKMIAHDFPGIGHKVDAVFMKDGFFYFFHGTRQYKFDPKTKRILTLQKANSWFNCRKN

[4] = Maximum concentration in portal vein was determined at a concentration of 10 mg/kg in rats; type: ADME, organism-based; set-up: dose 10 mg/kg; settings: rat, portal vein blood
[5] = Plasma half-life was determined; type: ADME, cell-free
[6] = species on record: Rattus norvegicus; experiment: Plasma half-life in rats; <MQL; type: ADME, organism-based; settings: in vivo
[7] = Biliary excretion when administered intravenously at a dose of 2.5 mg/kg in rats; type: ADME, organism-based; set-up: dose 2.5 mg/kg, route intravenous; settings: rat, bile, iv, read-out: Biliary excretion
[8] = Maximum concentration in portal vein was determined at a concentration of 20 mg/kg in rats; type: ADME, organism-based; set-up: dose 20 mg/kg; settings: rat, portal vein blood

Structure (SMILES)	half-life [1]	dose excreted [2]	Ki [3]	Cmax [4]	half-life [5]	T1/2 [6]	dose excreted [7]	Cmax [8]
COCCNC(=O)[C@H](Cc1c[nH]c2ccccc12)NC(=O)[C@@H](CC(=O)NO)CC(C)C	19 min	59.2%	5 nM					
CC(C)C[C@H](CC(=O)NO)C(=O)N[C@@H](Cc1c[nH]c2ccccc12)C(=O)NCCSCCN(C)C	43.7 min	60.8%	5 nM	2800 ng/mL				
CSCCNC(=O)[C@H](Cc1c[nH]c2ccccc12)NC(=O)[C@@H](CC(=O)NO)CC(C)C	32.4 min	27.3%	5 nM					
CC(C)C[C@H](CC(=O)NO)C(=O)N[C@@H](Cc1c[nH]c2ccccc12)C(=O)NCCN(C)C		18.9%	12 nM		21 min			
CC(C)C[C@H](CC(=O)NO)C(=O)N[C@@H](Cc1c[nH]c2ccccc12)C(=O)NCCS(N)(=O)=O	17.6 min	61.3%	6 nM					
CC(C)C[C@H](CC(=O)NO)C(=O)N[C@@H](Cc1c[nH]c2ccccc12)C(=O)NCc1ccc(CN(C)C)cc1			4 nM			<MQL	80.7%	
CC(C)C[C@H](CC(=O)NO)C(=O)N[C@@H](Cc1c[nH]c2ccccc12)C(=O)NCCSCCN1CCOCC1	42.5 min	30.8%	4 nM					
CC(C)C[C@H](CC(=O)NO)C(=O)N[C@@H](Cc1c[nH]c2ccccc12)C(=O)NCCSc1ccccc1	33.3 min	43.9%	3 nM					
CC(C)C[C@H](CC(=O)NO)C(=O)N[C@@H](Cc1c[nH]c2ccccc12)C(=O)NCCCN(C)C	25 min	18.1%	3 nM					
CNC(=O)[C@H](Cc1ccc(OC)cc1)NC(=O)[C@@H](CC(=O)NO)CC(C)C	9 min	84.1%						

The remaining compounds from weak to strong by Ki [3], led by results:

half-life [1]	dose excreted [2]	Ki [3]	Cmax [4]	half-life [5]	T1/2 [6]	dose excreted [7]	Cmax [8]	Structure (SMILES)
26.6 min		3 nM				17.9%		CC(C)C[C@H](CC(=O)NO)C(=O)N[C@@H](Cc1c[nH]c2ccccc12)C(=O)NCCCCN(C)C
24 min	67.2%	3 nM						CC(C)C[C@H](CC(=O)NO)C(=O)N[C@@H](Cc1c[nH]c2ccccc12)C(=O)NCCS(C)(=O)=O
37.6 min	46%	3 nM					900 ng/mL	CCSCCNC(=O)[C@H](Cc1c[nH]c2ccccc12)NC(=O)[C@@H](CC(=O)NO)CC(C)C
2.5 min	74.5%	2 nM						COc1ccc(C(=O)CCCCNC(=O)[C@H](Cc2c[nH]c3ccccc23)NC(=O)[C@@H](CC(=O)NO)CC(C)C)cc1
27 min	99.9%	2 nM						CC(C)C[C@H](CC(=O)NO)C(=O)N[C@@H](Cc1c[nH]c2ccccc12)C(=O)NCCCCOCc1ccccc1
7.4 min	44.8%	2 nM						CC(C)C[C@H](CC(=O)NO)C(=O)N[C@@H](Cc1c[nH]c2ccccc12)C(=O)NCC[S+](C)[O-] (stereo not given in full)
37 min	53%	1 nM						CSCCCNC(=O)[C@H](Cc1c[nH]c2ccccc12)NC(=O)[C@@H](CC(=O)NO)CC(C)C
6.9 min	108%	1 nM						CC(C)C[C@H](CC(=O)NO)C(=O)N[C@@H](Cc1c[nH]c2ccccc12)C(=O)NCCCCC(=O)O
